{"source": "patent US20110160399A1", "about": "“HISTONE MODIFICATION INHIBITOR SPECIFIC TO TARGET GENE” (NIHON UNIVERSITY, priority 2008, published 2011)", "system": "LARP1 gene expression", "assay": "Expression analysis of LARP1 gene by quantitative PCR in HEK293 cells", "format": "cell-based, human", "details": "150 nM, one week, compared to esterified SAHA+p16 PIP or SAHA+non-targeting PIP, FIG. 11", "protocol": "HEK293 cells were used to analyze LARP1 gene expression. HEK293 cells are a cell line established by transformation of human embryonic kidney cells with the adenovirus E1 gene. The LARP1 gene includes, in its gene region, a sequence similar to the sequence of the regulatory region in the p16 gene recognized by SAHA+p16 PIP, as described above. More specifically, the expression analysis was accomplished as follows. HEK293 cells were cultured in DMEM growth medium containing 10% fetal calf serum (FCS). During culture, the medium was replaced every two days by a culture solution containing the synthesized compound (SAHA+p16 PIP, esterified SAHA+p16 PIP or SAHA+non-targeting PIP) at a final concentration of 150 nM, and cell culture was continued for one week in the medium containing the above synthesized compound. After one week, the cells were lysed with 1 ml of TRIzol and then mixed with 200 μl of chloroform, followed by centrifugation at 12000×g at 4° C. for 10 minutes. Then, the supernatant was mixed with an equal volume of isopropanol and centrifuged at 12000×g at 4° C. for 10 minutes. Then, the pellet was washed with a 70% ethanol solution and centrifuged at 5000×g for 5 minutes to remove the supernatant. […] The RNA (1 μg) was used as a template to synthesize cDNA, followed by quantitative PCR. […]", "data": [{"smiles": "CN(C)CCCNC(=O)CCNC(=O)c1cc(NC(=O)c2nc(NC(=O)c3nc(NC(=O)CCNC(=O)c4cc(NC(=O)c5nc(NC(=O)CCCNC(=O)c6cc(NC(=O)c7nc(NC(=O)CCNC(=O)c8cc(NC(=O)c9cc(NC(=O)c%10nc(NC(=O)CCNC(=O)CCNC(=O)c%11ccc(NC(=O)CCCCCCC(=O)NO)cc%11)cn%10C)cn9C)cn8C)cn7C)cn6C)cn5C)cn4C)cn3C)cn2C)cn1C", "note": "[SAHA+p16 PIP, SAHA-ββImPyPyβImPyγImPyβImImPyβDp]", "values": [{"measurement": "expression of the LARP1 gene", "result": "increased expression"}]}]}
